Assay results published in patent publication US11149011B2, “Compounds and methods for IDO and TDO modulation, and indications therefor” (Plexxikon Inc., priority 2018, dated 2021).

Columns and labels:
[1] = biological target: T1, TDO (Homo sapiens, UniProt P48775); assay: TDO enzymatic assay; details: geometric mean; read-out: TDO GMean: IC50 (μM) (Biochemical Assay)
T1 construct: His tag (N); made in house; host or cells: E. coli
Method in brief: (§1)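 Kynurenine formed after TCA hydrolysis (30 min, 50 °C) was quantified relative to full-reaction and no-enzyme controls, and IC50s were fitted. TDO reactions used 1 nM enzyme with 350 μM Trp and 0.4 μM methylene blue for 70 min; IDO reactions used 6 nM enzyme, 10 μM Trp, 5 μM methylene blue for 20 min; both at pH 6.5, room temperature.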

[2] = biological target: T2, TDO-expressing HEK293 cell clones (Homo sapiens, UniProt P48775); assay: Cell based kynurenine assay, TDO-expressing HEK293 cell clones; details: HEK293 cells, 24 hours of incubation, geometric mean; read-out: HEK293 TDO Kynurenine GMean IC50 (μM) (Cellular Assay)
T2 construct: expressed in transfected cells; host or cells: HEK293
Method in brief: (§2)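 IC50s come from nonlinear regression of % inhibition of kynurenine in culture supernatant after 24 hours of compound exposure. Controls were 0.2% DMSO-treated cells and media alone. Cells were stable human IDO1- or TDO-expressing HEK293 clones (CMV promoter), plated at 2.5×10^4 per well.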

[3] = biological target: T3, IDO1 (Homo sapiens, UniProt P14902); assay: IDO enzymatic assay; type: biochemical; details: geometric mean; read-out: IDO1 GMean: IC50 (μM) (Biochemical Assay)
T3 construct: His tag (N); made in house; host or cells: E. coli
Method in brief: as §1

[4] = biological target: T4, IDO1-expressing HEK293 cell clones (Homo sapiens, UniProt P14902); assay: Cell based kynurenine assay, IDO1-expressing HEK293 cell clones; details: HEK293 cells, 24 hours of incubation, geometric mean; read-out: HEK293 IDO1 Kynurenine GMean IC50 (μM) (Cellular Assay)
T4 construct: expressed in transfected cells; host or cells: HEK293
Method in brief: as §2

Measured: IC50

T2 sequence (P48775 whole entry): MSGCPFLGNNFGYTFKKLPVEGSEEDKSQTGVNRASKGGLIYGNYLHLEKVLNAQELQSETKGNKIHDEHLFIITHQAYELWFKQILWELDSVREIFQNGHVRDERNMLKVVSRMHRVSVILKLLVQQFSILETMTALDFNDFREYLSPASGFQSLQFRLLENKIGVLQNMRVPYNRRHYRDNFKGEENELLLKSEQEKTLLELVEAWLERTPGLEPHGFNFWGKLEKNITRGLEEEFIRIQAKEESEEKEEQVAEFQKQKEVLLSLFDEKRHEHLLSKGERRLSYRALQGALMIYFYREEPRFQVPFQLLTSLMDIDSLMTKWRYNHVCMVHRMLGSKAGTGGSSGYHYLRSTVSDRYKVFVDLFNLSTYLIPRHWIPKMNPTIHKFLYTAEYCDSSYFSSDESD
T1 sequence (P48775 whole entry): as above
T3 sequence (P14902 whole entry): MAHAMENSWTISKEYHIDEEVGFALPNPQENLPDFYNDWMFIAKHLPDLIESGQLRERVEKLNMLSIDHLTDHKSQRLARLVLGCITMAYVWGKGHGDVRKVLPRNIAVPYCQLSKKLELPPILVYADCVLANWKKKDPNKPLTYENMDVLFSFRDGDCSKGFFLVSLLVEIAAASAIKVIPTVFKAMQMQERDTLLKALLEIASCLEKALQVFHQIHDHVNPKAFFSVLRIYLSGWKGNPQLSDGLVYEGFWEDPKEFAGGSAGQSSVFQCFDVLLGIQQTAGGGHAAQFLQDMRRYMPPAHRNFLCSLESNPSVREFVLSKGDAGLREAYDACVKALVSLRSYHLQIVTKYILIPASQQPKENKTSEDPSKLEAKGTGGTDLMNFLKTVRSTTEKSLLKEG
T4 sequence (P14902 whole entry): as above

CC(C)(C1CCN(C(=O)CC2CCOCC2)CC1)C(O)c1cc(Cl)cc2[nH]ncc12 (stereo not drawn) [Compound P-0050, 1-(4-(1-(6-chloro-1H-indazol-4-yl)-1-hydroxy-2-methylpropan-2-yl)piperidin-1-yl)-2-(tetrahydro-2H-pyran-4-yl)ethan-1-one]
0.0001 to 10 µM: all assays above

CC(C)NC(=O)N1CCC(C(C)(C)C(O)c2cc(Cl)cc3[nH]ncc23)CC1 (stereo not drawn) [Compound P-0074, 4-(1-(6-chloro-1H-indazol-4-yl)-1-hydroxy-2-methylpropan-2-yl)-N-isopropylpiperidine-1-carboxamide]
0.0001 to 10 µM: all assays above

CC(C)(C1CCN(C(=O)NOCc2ccccc2)CC1)[C@H](O)c1cc(Cl)cc2cn[nH]c12 [Compound P-0123, (S)-N-(benzyloxy)-4-(1-(5-chloro-1H-indazol-7-yl)-1-hydroxy-2-methylpropan-2-yl)piperidine-1-carboxamide]
0.0001 to 10 µM: all assays above
